Columns and labels:
AML12 Cell Line = experiment: Transfection of AML12 Cell Line with FLuc mRNA LNPs (ONE-Glo EX luciferase signal); format: cell-based; conditions: 200 ng Fluc mRNA-LNP, 24 hours
Summary of the method: (§1)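 Firefly luciferase luminescence measured 24 h after transfection with 200 ng mRNA-LNP per well in Opti-MEM. Seeding: 5,000 cells/well for B16F10 and MC38.K, 20,000 for AML12. LNPs were pre-incubated 30 min with mouse serum; mRNA content determined by RiboGreen.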

B16F10 Cell Line = experiment: Transfection of B16F10 Cell Line with FLuc mRNA LNPs (ONE-Glo EX luciferase signal); format: cell-based; conditions: 200 ng Fluc mRNA-LNP, 24 hours
Summary of the method: as §1

MC38.K Cell Line = experiment: Transfection of MC38.K Cell Line with FLuc mRNA LNPs (ONE-Glo EX luciferase signal); format: cell-based; conditions: 200 ng Fluc mRNA-LNP, 24 hours; Table 4
Summary of the method: as §1

Liver = experiment: Ex-vivo luminescence signal from liver after IV Fluc mRNA LNPs in CD1 mice (IVIS); conditions: tail vein 1.0 mg/kg Day 0 and Day 2, imaging 18 hours after second dose; for Total Liver Tissue Luciferin Signal (Photons/s) Ex-vivo - CD1: Table 4
Spleen = experiment: Ex-vivo luminescence signal from spleen after IV Fluc mRNA LNPs in CD1 mice (IVIS); conditions: tail vein 1.0 mg/kg Day 0 and Day 2, imaging 18 hours after second dose, Table 5

| Structure (SMILES) | Total Luciferin Signal (RLU) In Vitro - AML12 (AML12 Cell Line; Table 4) | Total Luciferin Signal (RLU) In Vitro - B16F10 (B16F10 Cell Line; Table 4) | Total Luciferin Signal (RLU) In Vitro - MC38.K (MC38.K Cell Line) | Total Liver Tissue Luciferin Signal (Photons/s) Ex-vivo - CD1 (Liver) | Total Luciferin Signal (RLU) In Vitro - AML12 (AML12 Cell Line; Table 5) | Total Luciferin Signal (RLU) In Vitro - B16F10 (B16F10 Cell Line; Table 5) | Total Liver Tissue Luciferin Signal (Photons/s) In Vivo-Cd1 (Liver; Table 5) | Total Spleen Tissue Luciferin Signal (Photons/s) In Vivo-Cd1 (Spleen) |
| --- | --- | --- | --- | --- | --- | --- | --- | --- |
| CCCCCCCCC(CCCCCCCC)OC(=O)CCCCCCCN(CCCCCCCOC(=O)CCCCCCCCC(C)C)CCOC(=O)CCCN(C)C [Compound 12] | 7.43E+05 RLU | 2.79E+06 RLU | 4.07E+06 RLU | 4.15E+07 Photons/s |  |  |  |  |
| CCCCCCCCC(CCCCCCCC)OC(=O)CCCCCCCN(CCO)CCCCCCCC(=O)OCCCCCCCCC(C)C [Compound 2] | 4.76E+06 RLU | 5.94E+06 RLU | 4.24E+06 RLU | 6.20E+09 Photons/s |  |  |  |  |
| CCCCCCCCCOC(=O)CCCCCCCN(CCCO)CCCCCCCC(=O)OC(CCCCCCCC)CCCCCCCCF (stereo not drawn) [Compound 30] | 8.06E+05 RLU | 1.16E+05 RLU | 4.65E+05 RLU | 1.53E+10 Photons/s |  |  |  |  |
| CCCCCCCCCOC(=O)CCCCCCCN(CCO)CCCCCCCC(=O)OCC(CCCCCC)CCCCCCCCF (stereo not drawn) [Compound 72, 10-fluoro-2-hexyldecyl 8-((2-hydroxyethyl)(8-(nonyloxy)-8-oxooctyl)amino)octanoate] | 2.78E+06 RLU | 7.23E+05 RLU | 5.53E+06 RLU | 3.60E+09 Photons/s |  |  |  |  |
| [2H]C([2H])(OC(=O)CCCN(C)C)C([2H])([2H])N(CCCCCCCC(=O)OCCCCCCCCC)CCCCCCCC(=O)OC(CCCCCCCC)CCCCCCCC [Compound 40, heptadecan-9-yl 8-((2-((4-(dimethylamino)butanoyl)oxy)ethyl-1,1,2,2-d4)(8-(nonyloxy)-8-oxooctyl)amino)octanoate] | 4.13E+06 RLU | 3.61E+06 RLU | 8.09E+06 RLU | 1.12E+08 Photons/s |  |  |  |  |
| CCCCCCCCC(CCCCCCCC)OC(=O)CCCCCCCN(CCO)CCCCCCCOC(=O)CCCCCCCCC(C)C [Compound 11] | 4.29E+06 RLU | 7.92E+06 RLU | 7.64E+06 RLU | 4.88E+09 Photons/s |  |  |  |  |
| CCCCCCCCCC(=O)OCCCCCCCN(CCO)CCCCCCCOC(=O)C(CCCCCCCC)CCCCCCCF (stereo not drawn) [Compound 27] | 3.02E+05 RLU | 6.19E+04 RLU | 2.37E+05 RLU | 5.60E+09 Photons/s |  |  |  |  |
| CCCCCCCCC(CCCCCCCC)OC(=O)CCCCCCCN(CCCCCCCC(=O)OCCCCCCCCC(C)C)CCOC(=O)CCCN(C)C [Compound 3] | 3.82E+06 RLU | 4.58E+06 RLU | 2.99E+06 RLU | 8.57E+07 Photons/s |  |  |  |  |
| CCCCCCCCC(CCCCCCCC)C(=O)OCCCCCCCN(CCO)CCCCCCCOC(=O)CCCCCCCCC(C)C [Compound 14] | 2.94E+06 RLU | 5.12E+06 RLU | 4.71E+06 RLU | 1.93E+09 Photons/s |  |  |  |  |
| CCCCCCCC/C=C\CCCCCCC1CN(CCO)CC(CCCCCCCCCCCC)O1 (stereo not drawn) [Compound 91, (Z)-2-(2-dodecyl-6-(hexadec-7-en-1-yl)morpholino)ethan-1-ol] |  |  |  |  | 1.94E+04 RLU | 2.02E+05 RLU | 3.65E+06 Photons/s | 1.44E+06 Photons/s |
| CCCCCCCCC(CCCCCCCC)C(=O)OCCCCCCCN(CCCCCC(=O)OCCCCCCCCC(C)C)CCOC(=O)CCCN(C)C [Compound 9] | 6.57E+05 RLU | 3.27E+06 RLU | 1.23E+06 RLU | 4.41E+07 Photons/s |  |  |  |  |
| CCCCCCCCC(CCCCCCCCF)OC(=O)CCCCCCCN(CCO)CCCCCCCC(=O)OCCCCCCCCC(C)C (stereo not drawn) [Compound 10] | 7.51E+05 RLU | 4.57E+05 RLU | 6.38E+05 RLU | 8.34E+09 Photons/s |  |  |  |  |

Source: US20260116845A1, “LIPIDS AND COMPOSITIONS THEREOF” (Kernal Biologics, Inc., priority 2023, published 2026)
